Measurements as given in patent publication US10301294B2, “Compounds for the treatment of tuberculosis” (priority 2013, dated 2019).

What was measured:
Type in all cases: cell-based
[1] = Cytotoxicity against HepG2; settings: human, HepG2 cells, 26.0 uM highest concentration measured
[2] = system: carbon-starved M. tuberculosis H37Rv; experiment: Non-replicating IC90 determination by luciferase (carbon-starved cells); settings: Mycobacterium tuberculosis, H37RV; non-replicating carbon-starved Mtb, luciferase; three independent experiments in triplicate; read-out: TB Growth Inhibition Activity, IC90 Non-replicating_luciferase
[3] = Cytotoxicity against Hek 293; settings: human, HEK293 cells, 26.0 uM highest concentration measured
[4] = system: replicating M. tuberculosis H37Rv; experiment: microbe, parasite or virus in culture; settings: Mycobacterium tuberculosis, H37RV, three independent experiments in triplicate, read-out: TB Growth Inhibition Activity, IC90 Replicating_logarithmic (converted)
[5] = Cytotoxicity against HeLa; settings: human, HeLa cells, 26.0 uM highest concentration measured
[6] = system: carbon-starved M. tuberculosis H37Rv; experiment: microbe, parasite or virus in culture; settings: for IC90: Mycobacterium tuberculosis, H37RV, read-out: Against carbon starving non-replicating Mtb IC90

SMILES	IC50 [1]	IC90 [2]	IC50 [3]	IC90 [4]	IC50 [5]	IC90 [6]	Against carbon starving non-replicating Mtb IC90 (uM) [6]
c1ccc(CSc2nnc(-c3ccccc3)o2)cc1	> 26 µM	8 µM	> 26 µM	62 µM	> 26 µM	–	–
c1ccc(CSc2nnc(-c3ccccc3)s2)cc1	> 26 µM	8 µM	> 26 µM	62 µM	> 26 µM	–	–
CN(Cc1ccccc1)c1nnc(-c2ccccc2)o1	> 26 µM	0.5 µM	> 26 µM	250 µM	> 26 µM	–	–
c1ccc(CCc2nnc(-c3ccccc3)o2)cc1	> 26 µM	0.5 µM	> 26 µM	250 µM	> 26 µM	–	–
c1ccc(CSc2nnc(C3CCCCC3)o2)cc1	> 26 µM	1 µM	> 26 µM	125 µM	> 26 µM	–	–
c1ccc(CSc2nnc(C3CCCC3)o2)cc1	> 26 µM	0.5 µM	> 26 µM	125 µM	> 26 µM	–	–
CC(C)c1nnc(SCc2ccccc2)o1	> 26 µM	2 µM	> 26 µM	125 µM	> 26 µM	–	–
c1ccc(CSc2nnc(Cc3ccccc3)o2)cc1	> 26 µM	4 µM	> 26 µM	500 µM	> 26 µM	–	–
c1ccc(CCc2nnc(SCc3ccccc3)o2)cc1	> 26 µM	32 µM	> 26 µM	250 µM	> 26 µM	–	–
COc1ccccc1-c1nnc(SCc2ccccc2)o1	> 26 µM	125 µM	> 26 µM	250 µM	> 26 µM	–	–
Fc1ccccc1-c1nnc(SCc2ccccc2)o1	> 26 µM	2 µM	> 26 µM	125 µM	> 26 µM	–	–
Clc1ccccc1-c1nnc(SCc2ccccc2)o1	> 26 µM	32 µM	> 26 µM	250 µM	> 26 µM	–	–
FC(F)(F)c1ccccc1-c1nnc(SCc2ccccc2)o1	> 26 µM	62 µM	> 26 µM	500 µM	> 26 µM	–	–
CS(=O)(=O)c1ccccc1-c1nnc(SCc2ccccc2)o1	> 26 µM	62 µM	> 26 µM	500 µM	> 26 µM	–	–
COc1cccc(-c2nnc(SCc3ccccc3)o2)c1	> 26 µM	8 µM	> 26 µM	250 µM	> 26 µM	–	–
Fc1cccc(-c2nnc(SCc3ccccc3)o2)c1	> 26 µM	1 µM	> 26 µM	125 µM	> 26 µM	–	–
FC(F)(F)Oc1cccc(-c2nnc(SCc3ccccc3)o2)c1	> 26 µM	31 µM	> 26 µM	250 µM	> 26 µM	–	–
Cc1ccc(-c2nnc(SCc3ccccc3)o2)cc1	> 26 µM	4 µM	> 26 µM	125 µM	> 26 µM	–	–
Fc1ccc(-c2nnc(SCc3ccccc3)o2)cc1	> 26 µM	2 µM	> 26 µM	125 µM	> 26 µM	–	–

SMILES	IC50 [1]	IC90 [2]	IC50 [3]	IC90 [4]	IC50 [5]	IC90 [6]	Against carbon starving non-replicating Mtb IC90 (uM) [6]
Clc1ccc(-c2nnc(SCc3ccccc3)o2)cc1	> 26 µM	4 µM	> 26 µM	500 µM	> 26 µM	–	–
c1ccc(CSc2nnc(-c3ccccn3)o2)cc1	> 26 µM	4 µM	> 26 µM	125 µM	> 26 µM	–	–
c1ccc(CSc2nnc(-c3cccnc3)o2)cc1	> 26 µM	2 µM	> 26 µM	125 µM	> 26 µM	–	–
c1ccc(CSc2nnc(-c3cscn3)o2)cc1	> 26 µM	4 µM	> 26 µM	125 µM	> 26 µM	–	–
Cc1ccccc1CSc1nnc(-c2ccccc2)o1	> 26 µM	8 µM	> 26 µM	250 µM	> 26 µM	–	–
FC(F)(F)Oc1ccccc1CSc1nnc(-c2ccccc2)o1	> 26 µM	4 µM	> 26 µM	500 µM	> 26 µM	–	–
Cc1cccc(CSc2nnc(-c3ccccc3)o2)c1	> 26 µM	1 µM	> 26 µM	125 µM	> 26 µM	–	–
Fc1cccc(CSc2nnc(-c3ccccc3)o2)c1	> 26 µM	2 µM	> 26 µM	250 µM	> 26 µM	–	–
FC(F)(F)c1cccc(CSc2nnc(-c3ccccc3)o2)c1	> 26 µM	4 µM	> 26 µM	250 µM	> 26 µM	–	–
CS(=O)(=O)c1cccc(CSc2nnc(-c3ccccc3)o2)c1	> 26 µM	250 µM	> 26 µM	250 µM	> 26 µM	–	–
c1ccc(-c2nnc(SCc3ncco3)o2)cc1	> 26 µM	16 µM	> 26 µM	31 µM	> 26 µM	–	–
c1ccc(-c2nnc(SCc3cscn3)o2)cc1	> 26 µM	4 µM	> 26 µM	62 µM	> 26 µM	–	–
CN(C)CCSc1nnc(-c2ccccc2)o1	> 26 µM	16 µM	> 26 µM	500 µM	> 26 µM	–	–
FC1(F)CN(CCSc2nnc(-c3ccccc3)o2)C1	> 26 µM	1 µM	> 26 µM	250 µM	> 26 µM	–	–
c1ccc(Cn2cc(CSc3nnc(-c4ccccc4)o3)nn2)cc1	> 26 µM	4 µM	> 26 µM	> 62 µM	> 26 µM	–	–
Fc1ccc(-c2nnc(SCc3cn(Cc4ccccc4)nn3)o2)cc1	> 26 µM	2 µM	> 26 µM	> 62 µM	> 26 µM	–	–
c1ccc(Cn2cc(CSc3nnc(C4CCCC4)o3)nn2)cc1	> 26 µM	31 µM	> 26 µM	62 µM	> 26 µM	–	–
c1ccc(Cn2cc(CSc3nnc(C4CCC4)o3)nn2)cc1	> 26 µM	8 µM	> 26 µM	> 62 µM	> 26 µM	–	–
Fc1ccc(Cn2cc(CSc3nnc(C4CCCC4)o3)nn2)cc1	> 26 µM	31 µM	> 26 µM	> 62 µM	> 26 µM	–	–

SMILES	IC50 [1]	IC90 [2]	IC50 [3]	IC90 [4]	IC50 [5]	IC90 [6]	Against carbon starving non-replicating Mtb IC90 (uM) [6]
Fc1ccc(Cn2cc(CSc3nnc(C4CCC4)o3)nn2)cc1	> 26 µM	8 µM	> 26 µM	> 62 µM	> 26 µM	–	–
Fc1ccc(Cn2cc(CSc3nnc(-c4ccc(F)cc4)o3)nn2)cc1	> 26 µM	4 µM	> 26 µM	> 62 µM	> 26 µM	–	–
Fc1ccc(Cn2cc(CSc3nnc(-c4ccc(Cl)cc4)o3)nn2)cc1	> 26 µM	2 µM	> 26 µM	> 62 µM	> 26 µM	–	–
Fc1ccc(-c2nnc(SCc3cn(-c4ccccc4)nn3)o2)cc1	> 26 µM	2 µM	> 26 µM	> 62 µM	> 26 µM	–	–
c1ccc(-n2cc(CSc3nnc(C4CCC4)o3)nn2)cc1	> 26 µM	2 µM	> 26 µM	62 µM	> 26 µM	–	–
c1ccc(-n2cc(CSc3nnc(C4CCCC4)o3)nn2)cc1	> 26 µM	4 µM	> 26 µM	62 µM	> 26 µM	–	–
O=S(=O)(Cc1ccccc1)c1nnc(-c2ccccc2)o1 [drawing 80]	> 26 µM	8 µM	> 26 µM	125 µM	> 26 µM	–	–
c1ccc(-c2nnc(SCc3ccccn3)o2)cc1 [drawing 142]	> 26 µM	3 µM	> 26 µM	100 µM	> 26 µM	–	–
c1ccc(-c2nnc(SCc3cccnc3)o2)cc1 [drawing 143]	> 26 µM	8 µM	> 26 µM	125 µM	> 26 µM	–	–
c1ccc(-c2nnc(SCc3ccncc3)o2)cc1 [drawing 144]	> 26 µM	31 µM	> 26 µM	250 µM	> 26 µM	–	–
COCCSc1nnc(-c2ccccc2)o1 [drawing 148]	> 26 µM	3 µM	> 26 µM	125 µM	> 26 µM	–	–
Clc1ccc(-c2nnc(SCc3cn(Cc4ccccc4)nn3)o2)cc1 [drawing 156]	> 26 µM	2 µM	> 26 µM	> 62 µM	> 26 µM	–	–
Clc1ccc(-c2nnc(SCc3cn(-c4ccccc4)nn3)o2)cc1 [drawing 164]	> 26 µM	1 µM	> 26 µM	> 62 µM	> 26 µM	–	–
c1ccc(-c2nnc(SCCC3OCCCO3)o2)cc1 [drawing 258]	–	–	–	–	–	10 µM	–
Fc1ccc(CSc2nnc(-c3ccccc3)o2)cc1 [drawing 259]	–	–	–	–	–	62 µM	–
COCCSc1nnc(-c2ccccc2)o1 [drawing 260]	–	–	–	–	–	4 µM	–
c1ccc(-c2nnc(SC3CCCCC3)o2)cc1 [drawing 262]	–	–	–	–	–	31 µM	–
[O-][n+]1ccccc1CSc1nnc(-c2ccccc2)o1 [drawing 263]	–	–	–	–	–	–	None
[O-][S+](Cc1ccccn1)c1nnc(-c2ccc(Cl)cc2)o1 (stereo not drawn) [drawing 264]	–	–	–	–	–	10 µM	–
